Laboratory results: patent US20090253778A1, “DNA composition against tumor stromal antigen FAP and methods of use thereof” (priority 2006, published 2009)
pIC50: −log10 of the molar value. Values belong to the compound of their own block, whether it stands above or below them.

Legend:
[1] = test system: CT26 colon carcinoma cells; test: nuclear apoptosis by Hoechst-33342 dye staining in chemoresistant CT26 clone; format: cell-based, Murine; settings: resistant CT26 clone, 48 hours
Method: (§1) Murine CT26 and D2F2 carcinoma cells were cultured in the presence of either 1% DMSO, etoposide, 5-fluorouracil, doxorubicin, vinblastine or paclitaxel (Sigma, St. Louis, Mo.) at the concentrations indicated. After 48 hours, apoptotic nuclei were counted after incubation with the DNA-specific Hoechst-33342 dye (2 μM; Molecular Probes, Eugene, Oreg.).
(§2) Two clones of CT26 colon cancer and D2F2 breast cancer cells, respectively, have acquired chemoresistance (see FIG. 1, Panel C).

[2] = test system: parent CT26 cell line (ATCC #CLR-2326); test: IC50 in original parent CT26 cell line; format: cell-based, Murine; settings: Mus musculus
Source text: as §2

[3] = test system: D2F2 breast carcinoma cells; test: nuclear apoptosis by Hoechst-33342 dye staining in resistant D2F2 cells; format: cell-based, Murine
Method: as §1, §2

[4] = test system: D2F2 breast carcinoma cells; test: prophylactic setting, orthotopic D2F2 tumor growth, with or without doxorubicin; format: in vivo, BALB/c mice
Method: Oral immunization, tumor cell challenge and treatment with doxorubicin. […] Med., 2002, 8: 1369-1375. Animals were challenged about 10 days later by subcutaneous (s.c.) injection of about 3×10^4 CT26 colon carcinoma cells in the left front flank or by orthotopic (o.t.) injection of about 3×10^5 D2F2 breast cancer cells in the left, second lowest mammary fat pad.
Tumor volume (in mm^3) was calculated by measuring the tumor in 2 dimensions (i.e., length and width, in millimeters) and calculating the volume as one half the length times the square of the width. In the therapeutic setting, the initial tumor cell inoculation was by intravenous (i.v.) injection of about 1×10^5 CT26 colon carcinoma cells followed about 3 and 10 days later by oral vaccinations with control vaccine or active DNA compositions. After about 18 days, the lungs were weighed (normal lung weight was about 0.2 g) and pulmonary tumor metastases were examined and scored by visual evaluation assessing the percentage of lung surface covered by fused metastases as follows: score of 0 for 0% coverage, score of 1 for less than about 20% coverage, score of 2 for about 20-50% coverage, score of 3 for greater than about 50% of lung surface covered. Treatment with doxorubicin was performed in groups of mice with about 10 mg/kg doxorubicin (Sigma) administered i.v., 5, 10 and 15 days after tumor challenge. […]

pIC50 [2]: ~5.73
Compound: O=c1[nH]cc(F)c(=O)[nH]1 [5-FU, 5-fluorouracil]
nuclear apoptosis (Hoechst-33342 dye staining) ([1]; concentration as high as 100 μM): not able to induce nuclear apoptosis

Compound: COc1cccc2c1C(=O)c1c(O)c3c(c(O)c1C2=O)C[C@@](O)(C(=O)CO)C[C@@H]3O[C@H]1C[C@H](N)[C@H](O)[C@H](C)O1 [doxorubicin]
sensitivity of D2F2 cells ([3]; FIG. 1, Panel C): partially sensitive | nuclear apoptosis (Hoechst-33342 dye staining) ([3]; resistant D2F2 cells, 48 hours, highest concentration of 1 μM): able to induce nuclear apoptosis | tumor growth ([4]; orthotopic D2F2, doxorubicin or PBS 5, 10 and 15 days after challenge): only able to suppress, but not eradicate tumor growth | complete rejection of tumors ([4]; single agent alone): not observed

Compound: CC[C@]1(O)C[C@@H]2CN(CCc3c([nH]c4ccccc34)[C@@](C(=O)OC)(c3cc4c(cc3OC)N(C)[C@H]3[C@@](O)(C(=O)OC)[C@H](OC(C)=O)[C@]5(CC)C=CCN6CC[C@]43[C@@H]65)C2)C1 [vinblastine]
nuclear apoptosis (Hoechst-33342 dye staining) ([1]; only at 5 μM): slight apoptotic effect
